In one data set the test system is CEM-SS cells. Put plainly: cellular toxicity in CEM-SS cells, XTT assay. Format: cell-based. To be noted: human, 144 h. The text has this:
CEM-SS cells were obtained from Owen Weislow at the National Cancer Institute.

The nature of another data set: solubility in solvents. The format is physicochemical.
Another data set concerns uninfected CEM cells. To be noted: human, 7200 min.
The subject of data set [1] is reverse transcriptase (RTase) derived from avian myeloblastosis virus (AMV). The format is biochemical. Particulars: concentrations higher than 3 μg/ml; 1 unit of AMV RTase.
A further data set has as its system HIV antigen. The experiment in a line: expression of HIV antigen in infected MT-4 cells by immunofluorescence. Format: cell-based. To be noted: HIV-infected MT-4 cells; concentration higher than 50 μg/ml. As for the experimental part: Expression of HIV antigen was examined by immunofluorescence. When MT-4 cells were infected with HIV, viral antigen positive cells increased with incubation time and all the cells became positive on day 6 after infection.

Data set [2] has as its system human immunodeficiency virus (HIV) LAV/BRU. Particulars: CEM-F cells; reduces viral replication by 50%.
Procedure: AZT was included as a reference compound. The methodology used in this assay is described below:
The cells and the virus were grown in LAV/CEM medium. The medium consists of RPMI 1640, supplemented with 1% L-glutamine, 100 U/ml of Penicillin, 100 μg/ml Streptomycin, 2 μg/ml Polybrene and 10% heat-inactivated fetal bovine serum (HyClone Labs). […] The LAV/BRU of human immunodeficiency virus (HIV) was obtained from Dr. L. Montagnier, Institute Pasteur, Paris, France. The virus was adapted to CEM cells, and infectious virus stocks were stored as cell-free supernatant fluids in 1 ml aliquots in liquid nitrogen. The titer of the stock was determined by an end point titration method using CEM cells in 96-well microtiter plates. The titration was done with ten replicates for each point, and the 50% tissue culture infective dose (TCID50) was calculated using the method of Reed and Muench (Amer. J. Hygiene, 27/3 (1938) 493-497).
25 The CEM cells (1.5×10^5 cells/ml) were placed in 96-well plates and incubated with virus for 45 minutes. After 45 minutes each compound was added in quadruplicate. […] The OD readings (absorbance at 450/630 nm) fall into three categories: Experimentals=values from wells containing cells, viral inoculum and drug; Controls=values from wells with cells and virus (100%); and Background=values from wells with viral inoculum alone. […]

SMILES strings stand for the structures.

Procedure for uninfected CEM cells: The cells and the virus were grown in LAV/CEM medium. The medium consists of RPMI 1640, supplemented with 1% L-glutamine, 100 U/ml of Penicillin, 100 μg/ml Streptomycin, 2 μg/ml Polybrene and 10% heat-inactivated fetal bovine serum (HyClone Labs).
The toxicities of the drugs were tested against uninfected CEM cells. The CEM cells were plated as described above, and culture for five days in the presence or absence of drugs. On day five 1 μCi/well of ^3 H-thymidine was added, and cells were harvested 3 hours later. The results are expressed as toxic dose 50 (TD50) and represent the amount of drug necessary to reduce the cell proliferation by 50% as measured through thymidine incorporation.

For `C/C1=C\C=C\C2(C)C=C(CO[C@H]3O[C@H](CO)[C@H](O)[C@H](O)[C@H]3O)C(C)CC23OC(O)C(C3=O)C(O)/C=C/C2(C)C=C(C=O)C(C)CC23OC(O)C(C3=O)C(O)/C(C)=C/C=C/C2C=C(CO[C@H]3O[C@H](CO)[C@H](O)[C@H](O)[C@H]3O)C(C)CC23OC(O)C(C3=O)C(O)/C=C/C2(C)C=C(C=O)C(C)CC23OC(O)C(C3=O)C1O` (some centres unmarked), the “TD50, XTT assay” value in the data set on CEM-SS cells was found to be 300 µg/mL. Besides, the “solubility in dimethylformamide and dimethyl sulfoxide” value in “solubility in solvents” is reported as “soluble”. The “TD50, thymidine incorporation” value with uninfected CEM cells was over 100 µg. Besides, the “inhibition of AMV RTase activity” value in data set [1] was “more than 95%”. In addition, the “HIV antigen positive cells” value in the data set with HIV antigen is “less than 1%”. For the same compound, the “ED50, p24gag antigen capture assay” value in data set [2] is 3.2 µg.

For `C/C1=C\C=C\C2C=C(CO[C@H]3O[C@H](CO)[C@H](O)[C@H](O)[C@H]3O)C(C)CC23OC(O)C(C3=O)C(O)/C=C/C2(C)C=C(CO)C(C)CC23OC(O)C(C3=O)C(O)/C(C)=C/C=C/C2(C)C=C(CO[C@H]3O[C@H](CO)[C@H](O)[C@H](O)[C@H]3O)C(C)CC23OC(O)C(C3=O)C(O)/C=C/C2(C)C=C(C=O)C(C)CC23OC(O)C(C3=O)C1O` (some centres unmarked), the “TD50, XTT assay” value with CEM-SS cells turned out to be 200 µg/mL. Further, the “solubility in dimethylformamide and dimethyl sulfoxide” value in the data set “solubility in solvents” was “soluble”. For the same compound, in the data set with uninfected CEM cells, the “TD50, thymidine incorporation” value was over 100 µg. In addition, the “ED50, p24gag antigen capture assay” value in data set [2] was 2.5 µg.

Regarding `Cc1cn([C@H]2C[C@H](N=[N+]=[N-])[C@@H](CO)O2)c(=O)[nH]c1=O` [AZT, reference compound], in the data set with uninfected CEM cells, the “TD50, thymidine incorporation” value was determined as 4.2 µg.

Source of the values: US5124150A.
